The source of these data is patent US10112895B2, “Antivirals against molluscum contagiosum virus” (priority 2014, dated 2018).

“Also recorded” adds a separate entry of the source. Read-outs that look alike come from different tables or passages of the source.

Data set [1] deals with mD4-VV hybrid virus. As to the kind of experiment: microbe, parasite or virus in culture. It is filed as cell-based, vaccinia hybrid virus containing mD4 of MCV. To be noted: for EC50: Hybrid virus.
Data set [2] has as its system 2-D keratinocyte cultures. As to the kind of experiment: Toxicity on 2-D keratinocyte cultures. The data set is classed as cell-based. Conditions: at the concentrations used in the 3-D culture experiment.
The target of data set [3] is T1, mD4 (Molluscum contagiosum virus, UniProt Q98260). As to the kind of experiment: Binding to immobilized mD4 by SPR (Surface Plasmon Resonance). To be noted: steady-state response, 1:1 binding model, 0-250 μM, 1% DMSO; read-out: binding affinity KD to mD4 protein by SPR. How it is done: The binding of compound 2 to mD4 was determined by SPR. mD4 was immobilized onto a biosensor chip at ˜3500 RU, and compound 2 was injected at 0-250 μM in buffer with 1% DMSO. The binding affinity KD was determined from the plot of steady-state response (Req) against compound 2 concentrations and fitting to a 1:1 binding model (FIG. 10).
T1 sequence (Q98260 1-226): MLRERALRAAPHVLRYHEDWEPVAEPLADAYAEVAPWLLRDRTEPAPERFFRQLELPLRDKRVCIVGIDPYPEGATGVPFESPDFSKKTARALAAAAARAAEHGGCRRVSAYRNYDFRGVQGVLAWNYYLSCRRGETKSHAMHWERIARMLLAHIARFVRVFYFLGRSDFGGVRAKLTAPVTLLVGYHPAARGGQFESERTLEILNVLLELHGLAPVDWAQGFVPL

The nature of data set [4]: Half-life stability in mouse liver microsomes. It is filed as in vitro ADME. To be noted: for half-life: mouse, liver microsomes.
Data set [5] deals with mD4-dependent processive DNA synthesis (6His-mD4, vA20 and vE9) (Molluscum contagiosum virus, UniProt Q98260). The data set is described as follows: biochemical. More on the design: species or system molluscum contagiosum virus / vaccinia virus.
Chain of mD4-dependent processive DNA synthesis (6His-mD4, vA20 and vE9) (Q98260 1-226): as above
For data set [6], the system named is mD4-VV hybrid virus. The data set is described as follows: mD4-VV infection of 3-D human skin organ culture (viral titer and histology). It is filed as cell-based. To be noted: for viral titer of mD4-VV in 3-D human skin organ culture: 3 days post infection, compared to DMSO drug vehicle.
The target of data set [7] is T1, mD4. The data set is described as follows: Thermal shift (differential scanning fluorimetry) assay with purified 6His-mD4. The data set is classed as binding. To be noted: difference to DMSO mock treatment. The protocol: Thermal shift assay. Thermal shift (differential scanning fluorimetry) assay was performed as previously described. Briefly, 5 μM purified 6His-mD4 was mixed with compounds in thin-wall PCR 96-plate wells at 20 μL total volume containing 25 mM phosphate buffer (pH 6.8), 0.2 M NaCl, 2.5% glycerol, 2% DMSO, 0.005% (w/v) Triton-X100, and 1× Sypro Orange. Fluorescence intensities were monitored using the Applied Biosystems 7500 Fast Real-Time PCR system (Carlsbad, Calif.) at 582 nm from 25-80 ° C. at a rate of 1° C./min To generate melting temperature (Tm), protein melting curves were plotted on GraphPad Prism and fitted to the Boltzmann sigmoidal model. Thermal shift (ΔTm) is the difference between the 2% DMSO mock-treatment and inhibitor treatment. All experiments were duplicated and repeated independently.

The test system of data set [8] is mD4-VV hybrid virus. The data set is classed as cell-based, vaccinia hybrid virus containing mD4 of MCV.
The subject of another data set is BSC-1 cells. To be noted: as previously determined; read-out: cytotoxicity CC50 on BSC-1 cells; cited from earlier work.
Another data set has as its system vD4-VV rescue virus. The data set is described as follows: microbe, parasite or virus in culture. The data set is classed as cell-based. To be noted: Orthopoxvirus vaccinia, BSC-1, 16 h, read-out: EC50, plaque reduction of vD4-VV rescue virus.
Where [9] appears, read: BSC-1, 16 h, read-out: EC50, plaque reduction of mD4-VV hybrid virus.

As to `Oc1ccc(NCc2cc(Br)ccc2OCc2ccc(F)cc2)cc1` [Compound 1, 4-[[5-bromo-2-[(4-fluorophenyl)methoxy]phenyl]methylamino]phenol], the EC50 in the data set on mD4-VV hybrid virus [1] (BSC-1, read-out: EC50 (mD4-VV)) stood at 19.9 µM.
For `O=c1[nH]c2ccc(NCc3ccccc3OCc3ccccc3)cc2[nH]1` [Compound 2, 5-[(2-benzyloxyphenyl)methylamino]-1,3-dihydrobenzimidazol-2-one], the EC50 in the data set on mD4-VV hybrid virus [1] (setting [9]) worked out at 3 µM; in the data set with mD4-VV hybrid virus [1] (BSC-1, read-out: EC50 (mD4-VV)), 10 µM. The “toxicity on 2-D keratinocyte cultures” value in data set [2] is on record as “not toxic”. On mD4 [3], the equilibrium dissociation constant (Kd) amounted to 32.8 µM. Besides, the “increase of half-life in mouse liver microsomes above compound 10” value in data set [4] (compound 2 versus compound 10) is “greater than 5 fold”. In data set [4], the half-life was found to be 36 min. Further, in data set [5], the “blocking processive DNA synthesis in vitro” value is “specific blocking processive DNA synthesis in vitro”. Moreover, the “viral titer of mD4-VV in 3-D human skin organ culture” value in the data set on mD4-VV hybrid virus [6] is given as “blocks mD4-VV viral infection”; in the data set on mD4-VV hybrid virus [6] (listed as compound 2), “significant decline in the viral titer”. Moreover, the “histological analysis of 3-D human skin organ culture infected with mD4-VV” value in the data set with mD4-VV hybrid virus [6] (H&E stained cross-section, 3 days after infection) is “abundant population of stained keratinocytes was observed; also recorded: protection of the 3-D human skin organ culture”.
For the compound `NS(=O)(=O)c1ccc(NCc2cc(Cl)ccc2OCc2ccccc2)cc1` [Compound 3, 4-[(2-benzyloxy-5-chloro-phenyl)methylamino]benzenesulfonamide], the EC50 in the data set with mD4-VV hybrid virus [1] (BSC-1, read-out: EC50 (mD4-VV)) is 13.9 µM.
The same measure, in the same setting: in the case of `O=c1[nH]c2ccc(NCc3ccccc3OCc3ccc(Cl)cc3)cc2[nH]1` [Compound 4, 5-[[2-[(4-chlorophenyl)methoxy]phenyl]methylamino]-1,3-dihydrobenzimidazol-2-one] it was 11 µM; in that of `O=c1[nH]c2ccc(NCc3ccccc3OCc3ccc(F)cc3)cc2[nH]1` [Compound 6, 5-[[2-[(4-fluorophenyl)methoxy]phenyl]methylamino]-1,3-dihydrobenzimidazol-2-one], 13.9 µM.
On the same count and under the same terms, to `O=c1[nH]c2ccc(NCc3cc(Br)ccc3OCc3ccccc3)cc2[nH]1` [Compound 7, 5-[(2-benzyloxy-5-bromo-phenyl)methylamino]-1,3-dihydrobenzimidazol-2-one] belongs 11 µM.
Still for that read-out and setting: in the case of `O=c1[nH]c2ccc(NCc3cc(Cl)ccc3OCc3ccccc3F)cc2[nH]1` [Compound 8, 5-[[5-chloro-2-[(2-fluorophenyl)methoxy]phenyl]methylamino]-1,3-dihydrobenzimidazol-2-one] it was 11 µM; in that of `O=[N+]([O-])c1cccc(COc2ccccc2CNc2ccc(O)cc2)c1` [Compound 9, 4-[[2-[(3-nitrophenyl)methoxy]phenyl]methylamino]phenol], 13.3 µM.
As to `Oc1ccc(NCc2ccccc2OCc2ccccc2)cc1` [Compound 10, 4-[(2-benzyloxyphenyl)methylamino]phenol], the figures for the “Thermal shift (ΔTm) of 6His-mD4” value at mD4 [7] (10 μM compound) and on mD4 [7] (40 μM compound) were 2.2 °C and 3.3 °C, respectively. For the same compound, the EC50 with mD4-VV hybrid virus [1] (setting [9]) was 14 µM; in the data set with mD4-VV hybrid virus [1] (BSC-1, read-out: EC50 (mD4-VV)), 35.6 µM; in the data set on vD4-VV rescue virus, 11 µM. In the data set on mD4-VV hybrid virus [8], the “mD4-VV genomic DNA accumulation” value was “completely prevented”. Further, the half-life in data set [4] is 6.7 min. The compound further displayed an IC50 in data set [5] of 28 µM. Further, in the data set with BSC-1 cells, the CC50 is 175 µM.
On to `O=[N+]([O-])c1cccc(COc2ccccc2CNc2ccccc2O)c1` [Compound 11, 2-[[2-[(3-nitrophenyl)methoxy]phenyl]methylamino]phenol], for which, in the data set with mD4-VV hybrid virus [1] (BSC-1, read-out: EC50 (mD4-VV)), the EC50 came to 17.7 µM.
The same measure, in the same setting: in the case of `Oc1ccc(NCc2ccccc2OCc2ccccc2)c(F)c1` [Compound 12, 4-[(2-benzyloxyphenyl)methylamino]-3-fluoro-phenol] it was 19.4 µM.
As to `c1ccc(COc2ccccc2CNc2ccc(-c3cnco3)cc2)cc1` [Compound 13, N-[(2-benzyloxyphenyl)methyl]-4-oxazol-5-yl-aniline], in the data set with mD4-VV hybrid virus [1] (BSC-1, read-out: EC50 (mD4-VV)), the EC50 was determined as 14.4 µM.
Consider `c1ccc(COc2ccccc2CNc2ccc3[nH]ncc3c2)cc1` [Compound 14, N-[(2-benzyloxyphenyl)methyl]-1H-indazol-5-amine], for which the EC50 in the data set on mD4-VV hybrid virus [1] (BSC-1, read-out: EC50 (mD4-VV)) turned out to be 7.9 µM.
As for `Nc1nc2c(ncn2COCCO)c(=O)[nH]1` [acyclovir, reference compound], the “inhibitory effect in plaque reduction assay” value in the data set with mD4-VV hybrid virus [1] is “no inhibitory effect”.
